From ChEMBL document CHEMBL1687828, “Extremely drug-resistant Citrobacter freundii isolate producing NDM-1 and other carbapenemases identified in a patient returning from India” (2011)

How the values were obtained:
Citrobacter freundii [1] = assay: Antibacterial activity against drug-resistant Citrobacter freundii isolate producing metallo-beta-lactamase NDM-1 with carbapenemase activity isolated from urine culture of cerebral vascular malformation patient by Etest; format: functional, organism-based
Citrobacter freundii [2] = assay: Antibacterial activity against drug-resistant Citrobacter freundii isolate producing metallo-beta-lactamase NDM-1 with carbapenemase activity isolated from urine culture of cerebral vascular malformation patient; format: functional

| Compound | MIC (Citrobacter freundii [1]) | MIC (Citrobacter freundii [2]) |
| --- | --- | --- |
| COLISTIN | 0.5 µg/mL | – |
| C[C@@H](O)[C@H]1C(=O)N2C(C(=O)O)=C(SCCNC=N)C[C@H]12 [IMIPENEM ANHYDROUS] | – | > 32 µg/mL |
| C[C@@H](O)[C@H]1C(=O)N2C(C(=O)O)=C(S[C@@H]3CN[C@H](C(=O)Nc4cccc(C(=O)O)c4)C3)[C@H](C)[C@H]12 [ERTAPENEM] | – | > 32 µg/mL |
| C[C@@H](O)[C@H]1C(=O)N2C(C(=O)O)=C(S[C@@H]3CN[C@H](C(=O)N(C)C)C3)[C@H](C)[C@H]12 [MEROPENEM] | – | > 32 µg/mL |
